Assay results as given in ChEMBL document CHEMBL3627608, “Crystal structures of human RIP2 kinase catalytic domain complexed with ATP-competitive inhibitors: Foundations for understanding inhibitor selectivity” (Bioorg Med Chem, 2015).

How the values were obtained:
[1] = biological target: T1, Serine/threonine-protein kinase DCLK2 (Homo sapiens) (UniProt Q8N568); assay: Inhibition of DCAMKL2 (unknown origin) at 10 uM after 120 mins P33 radiolabeled kinase activity assay
T1 sequence (whole entry): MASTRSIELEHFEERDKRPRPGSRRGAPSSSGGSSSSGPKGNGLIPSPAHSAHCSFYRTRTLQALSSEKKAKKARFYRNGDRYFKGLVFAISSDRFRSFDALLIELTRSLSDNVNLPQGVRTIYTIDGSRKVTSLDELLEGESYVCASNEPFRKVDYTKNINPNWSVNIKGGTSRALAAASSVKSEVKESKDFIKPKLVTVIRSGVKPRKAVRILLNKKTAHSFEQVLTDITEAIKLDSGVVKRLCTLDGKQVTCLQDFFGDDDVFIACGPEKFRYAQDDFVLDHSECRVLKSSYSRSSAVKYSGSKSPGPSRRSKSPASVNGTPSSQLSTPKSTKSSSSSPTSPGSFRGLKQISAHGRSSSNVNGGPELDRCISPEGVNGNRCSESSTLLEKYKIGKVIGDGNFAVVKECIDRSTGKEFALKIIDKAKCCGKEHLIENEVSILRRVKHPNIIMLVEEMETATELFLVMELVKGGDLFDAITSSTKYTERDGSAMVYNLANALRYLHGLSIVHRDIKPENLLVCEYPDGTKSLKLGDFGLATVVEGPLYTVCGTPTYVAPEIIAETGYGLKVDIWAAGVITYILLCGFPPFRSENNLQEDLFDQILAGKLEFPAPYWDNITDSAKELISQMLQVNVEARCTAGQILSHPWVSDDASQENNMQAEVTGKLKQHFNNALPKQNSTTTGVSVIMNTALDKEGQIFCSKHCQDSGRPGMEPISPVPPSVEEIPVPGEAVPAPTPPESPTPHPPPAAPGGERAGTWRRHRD

[2] = biological target: T2, Mitogen-activated protein kinase kinase kinase kinase 3 (Homo sapiens) (UniProt Q8IVH8); assay: Inhibition of GLK (unknown origin) at 10 uM after 120 mins P33 radiolabeled kinase activity assay
T2 sequence (whole entry): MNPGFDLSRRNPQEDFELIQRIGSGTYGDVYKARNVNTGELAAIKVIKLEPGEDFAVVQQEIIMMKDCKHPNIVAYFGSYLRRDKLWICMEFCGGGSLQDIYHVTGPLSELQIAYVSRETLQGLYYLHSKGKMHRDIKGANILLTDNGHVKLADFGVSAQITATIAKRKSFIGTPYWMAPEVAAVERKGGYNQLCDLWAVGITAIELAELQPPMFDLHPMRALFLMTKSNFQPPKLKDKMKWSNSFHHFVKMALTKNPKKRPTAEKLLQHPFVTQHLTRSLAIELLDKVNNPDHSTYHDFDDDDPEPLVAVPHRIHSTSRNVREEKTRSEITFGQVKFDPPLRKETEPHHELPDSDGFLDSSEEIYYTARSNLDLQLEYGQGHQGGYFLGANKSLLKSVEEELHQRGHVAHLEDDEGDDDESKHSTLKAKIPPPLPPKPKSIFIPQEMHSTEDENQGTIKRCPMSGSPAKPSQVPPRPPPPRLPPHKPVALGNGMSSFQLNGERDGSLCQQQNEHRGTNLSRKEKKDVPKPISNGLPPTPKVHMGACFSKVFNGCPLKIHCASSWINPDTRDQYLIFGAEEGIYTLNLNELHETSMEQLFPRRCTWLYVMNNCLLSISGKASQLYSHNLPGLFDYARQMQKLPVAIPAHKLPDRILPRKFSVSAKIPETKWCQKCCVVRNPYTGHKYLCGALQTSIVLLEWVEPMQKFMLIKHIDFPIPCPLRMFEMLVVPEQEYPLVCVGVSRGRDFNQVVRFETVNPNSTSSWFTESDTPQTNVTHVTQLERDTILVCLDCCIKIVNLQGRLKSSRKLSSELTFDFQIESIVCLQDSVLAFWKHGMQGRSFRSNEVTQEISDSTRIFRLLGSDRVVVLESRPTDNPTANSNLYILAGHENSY

[3] = biological target: T3, Rhodopsin kinase GRK7 (Homo sapiens) (UniProt Q8WTQ7); assay: Inhibition of GRK7 (unknown origin) at 10 uM after 120 mins P33 radiolabeled kinase activity assay
T3 sequence (whole entry): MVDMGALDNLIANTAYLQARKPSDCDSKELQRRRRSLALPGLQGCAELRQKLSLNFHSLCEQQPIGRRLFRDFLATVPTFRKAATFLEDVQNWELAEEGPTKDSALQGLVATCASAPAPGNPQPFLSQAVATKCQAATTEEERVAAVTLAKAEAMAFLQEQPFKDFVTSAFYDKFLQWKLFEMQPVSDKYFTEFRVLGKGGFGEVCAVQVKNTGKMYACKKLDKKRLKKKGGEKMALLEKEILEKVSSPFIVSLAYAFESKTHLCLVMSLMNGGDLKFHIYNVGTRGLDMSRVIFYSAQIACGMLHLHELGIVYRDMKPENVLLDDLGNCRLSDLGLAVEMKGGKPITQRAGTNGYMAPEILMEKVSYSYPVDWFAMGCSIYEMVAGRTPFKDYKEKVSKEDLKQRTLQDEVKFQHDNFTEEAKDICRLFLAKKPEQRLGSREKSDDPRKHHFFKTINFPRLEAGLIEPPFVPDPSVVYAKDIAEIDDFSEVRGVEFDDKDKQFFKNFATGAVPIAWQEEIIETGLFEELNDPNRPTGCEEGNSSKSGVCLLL

[4] = biological target: Tyrosine-protein kinase HCK (Homo sapiens) (UniProt P08631); assay: Inhibition of HCK (unknown origin) at 10 uM after 120 mins P33 radiolabeled kinase activity assay
[5] = biological target: Mitogen-activated protein kinase kinase kinase kinase 4 (Homo sapiens) (UniProt O95819); assay: Inhibition of HGK (unknown origin) at 10 uM after 120 mins P33 radiolabeled kinase activity assay
[6] = biological target: RAC-alpha serine/threonine-protein kinase (Homo sapiens) (UniProt P31749); assay: Inhibition of AKT1 (unknown origin) at 10 uM after 120 mins P33 radiolabeled kinase activity assay
[7] = biological target: Inactive tyrosine-protein kinase PEAK1 (Homo sapiens) (UniProt Q9H792); assay: Inhibition of PEAK1 (unknown origin) at 10 uM after 120 mins P33 radiolabeled kinase activity assay
Sequence of Inactive tyrosine-protein kinase PEAK1 (Homo sapiens) (Q9H792 whole entry): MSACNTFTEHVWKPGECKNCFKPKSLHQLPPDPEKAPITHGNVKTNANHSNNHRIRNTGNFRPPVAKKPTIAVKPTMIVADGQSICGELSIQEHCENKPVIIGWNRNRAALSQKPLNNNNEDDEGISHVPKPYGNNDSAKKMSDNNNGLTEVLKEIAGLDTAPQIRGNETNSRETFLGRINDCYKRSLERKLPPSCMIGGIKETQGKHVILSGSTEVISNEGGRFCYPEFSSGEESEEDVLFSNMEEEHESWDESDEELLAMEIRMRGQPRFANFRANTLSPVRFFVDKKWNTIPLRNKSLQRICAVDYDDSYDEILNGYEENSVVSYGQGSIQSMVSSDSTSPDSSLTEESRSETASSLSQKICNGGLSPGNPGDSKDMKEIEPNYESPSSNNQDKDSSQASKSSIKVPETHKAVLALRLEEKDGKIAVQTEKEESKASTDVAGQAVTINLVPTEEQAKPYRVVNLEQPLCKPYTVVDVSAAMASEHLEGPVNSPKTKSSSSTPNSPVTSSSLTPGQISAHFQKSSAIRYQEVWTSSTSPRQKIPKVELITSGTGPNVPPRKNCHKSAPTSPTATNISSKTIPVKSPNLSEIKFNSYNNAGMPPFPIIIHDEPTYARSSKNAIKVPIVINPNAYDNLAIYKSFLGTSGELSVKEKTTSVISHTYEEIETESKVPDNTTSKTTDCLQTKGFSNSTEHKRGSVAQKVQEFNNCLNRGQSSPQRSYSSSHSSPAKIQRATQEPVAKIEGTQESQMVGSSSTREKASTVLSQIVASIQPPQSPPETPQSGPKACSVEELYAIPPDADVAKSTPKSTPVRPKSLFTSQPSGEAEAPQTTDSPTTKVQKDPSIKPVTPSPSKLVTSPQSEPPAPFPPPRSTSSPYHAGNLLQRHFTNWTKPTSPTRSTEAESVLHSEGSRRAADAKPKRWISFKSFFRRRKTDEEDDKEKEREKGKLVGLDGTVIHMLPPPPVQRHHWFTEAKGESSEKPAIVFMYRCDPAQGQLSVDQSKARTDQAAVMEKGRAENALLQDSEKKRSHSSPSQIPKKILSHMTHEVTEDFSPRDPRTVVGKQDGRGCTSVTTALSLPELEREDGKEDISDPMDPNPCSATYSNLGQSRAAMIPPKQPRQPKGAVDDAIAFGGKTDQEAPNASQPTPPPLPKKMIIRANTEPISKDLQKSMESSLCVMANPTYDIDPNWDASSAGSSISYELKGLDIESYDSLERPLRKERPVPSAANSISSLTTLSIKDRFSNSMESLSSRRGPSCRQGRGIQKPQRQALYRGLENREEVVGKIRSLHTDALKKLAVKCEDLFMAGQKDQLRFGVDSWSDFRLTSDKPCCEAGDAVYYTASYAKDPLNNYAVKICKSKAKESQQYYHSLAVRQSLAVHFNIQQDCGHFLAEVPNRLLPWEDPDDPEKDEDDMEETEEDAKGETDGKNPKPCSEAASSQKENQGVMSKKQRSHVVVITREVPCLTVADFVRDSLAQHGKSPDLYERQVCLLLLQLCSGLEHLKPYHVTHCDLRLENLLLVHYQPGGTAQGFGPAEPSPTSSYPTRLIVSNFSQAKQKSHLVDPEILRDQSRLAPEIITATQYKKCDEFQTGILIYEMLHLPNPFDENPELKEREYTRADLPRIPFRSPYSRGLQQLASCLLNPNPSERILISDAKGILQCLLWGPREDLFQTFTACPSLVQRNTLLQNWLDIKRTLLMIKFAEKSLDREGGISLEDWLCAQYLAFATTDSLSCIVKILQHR

Sequence of Mitogen-activated protein kinase kinase kinase kinase 4 (Homo sapiens) (O95819 2-1239 limits assumed): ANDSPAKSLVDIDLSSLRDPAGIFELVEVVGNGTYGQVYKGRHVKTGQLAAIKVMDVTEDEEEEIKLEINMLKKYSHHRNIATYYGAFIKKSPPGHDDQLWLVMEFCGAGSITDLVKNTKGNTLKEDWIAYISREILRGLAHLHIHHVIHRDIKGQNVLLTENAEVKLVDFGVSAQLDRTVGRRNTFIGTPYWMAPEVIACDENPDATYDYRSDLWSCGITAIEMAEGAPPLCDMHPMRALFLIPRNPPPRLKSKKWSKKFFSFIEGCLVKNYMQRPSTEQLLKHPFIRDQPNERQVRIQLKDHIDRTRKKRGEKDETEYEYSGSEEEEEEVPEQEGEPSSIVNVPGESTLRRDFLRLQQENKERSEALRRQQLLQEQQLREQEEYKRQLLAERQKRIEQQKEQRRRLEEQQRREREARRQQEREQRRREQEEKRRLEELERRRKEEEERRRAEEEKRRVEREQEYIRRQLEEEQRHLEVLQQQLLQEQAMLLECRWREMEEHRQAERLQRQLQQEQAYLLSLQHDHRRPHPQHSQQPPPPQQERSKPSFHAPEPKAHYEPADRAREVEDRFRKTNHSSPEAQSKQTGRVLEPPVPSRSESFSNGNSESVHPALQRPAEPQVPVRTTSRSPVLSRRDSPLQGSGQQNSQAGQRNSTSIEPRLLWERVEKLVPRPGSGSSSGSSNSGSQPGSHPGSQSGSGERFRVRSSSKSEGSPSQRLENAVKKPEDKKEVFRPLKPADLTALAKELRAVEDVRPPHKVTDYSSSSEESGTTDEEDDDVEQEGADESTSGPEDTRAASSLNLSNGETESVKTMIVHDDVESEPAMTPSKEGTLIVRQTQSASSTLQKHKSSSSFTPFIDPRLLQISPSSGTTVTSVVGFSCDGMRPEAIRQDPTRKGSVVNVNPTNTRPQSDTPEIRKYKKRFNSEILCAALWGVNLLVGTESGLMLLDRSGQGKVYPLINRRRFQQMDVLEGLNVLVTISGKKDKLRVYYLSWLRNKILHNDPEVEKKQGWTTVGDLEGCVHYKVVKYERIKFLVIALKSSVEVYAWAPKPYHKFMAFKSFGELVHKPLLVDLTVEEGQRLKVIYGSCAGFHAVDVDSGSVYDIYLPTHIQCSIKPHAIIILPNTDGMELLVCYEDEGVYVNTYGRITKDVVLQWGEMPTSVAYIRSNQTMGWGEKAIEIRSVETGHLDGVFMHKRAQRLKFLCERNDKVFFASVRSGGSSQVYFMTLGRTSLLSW
Sequence of Tyrosine-protein kinase HCK (Homo sapiens) (P08631 2-526 limits assumed): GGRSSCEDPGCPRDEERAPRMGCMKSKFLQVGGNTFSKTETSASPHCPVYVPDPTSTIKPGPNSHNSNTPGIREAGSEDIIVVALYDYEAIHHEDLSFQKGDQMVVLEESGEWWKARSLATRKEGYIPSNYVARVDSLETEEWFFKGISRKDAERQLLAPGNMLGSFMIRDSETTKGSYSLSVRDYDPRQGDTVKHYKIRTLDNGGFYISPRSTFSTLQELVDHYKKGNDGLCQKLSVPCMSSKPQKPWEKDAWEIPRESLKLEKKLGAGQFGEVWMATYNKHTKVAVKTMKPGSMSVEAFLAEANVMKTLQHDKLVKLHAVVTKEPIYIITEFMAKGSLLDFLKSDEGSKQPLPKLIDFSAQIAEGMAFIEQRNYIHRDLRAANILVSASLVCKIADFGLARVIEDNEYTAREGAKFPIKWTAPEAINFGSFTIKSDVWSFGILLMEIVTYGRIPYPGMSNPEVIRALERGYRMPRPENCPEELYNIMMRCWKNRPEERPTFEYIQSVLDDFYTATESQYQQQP
Sequence of RAC-alpha serine/threonine-protein kinase (Homo sapiens) (P31749 whole entry): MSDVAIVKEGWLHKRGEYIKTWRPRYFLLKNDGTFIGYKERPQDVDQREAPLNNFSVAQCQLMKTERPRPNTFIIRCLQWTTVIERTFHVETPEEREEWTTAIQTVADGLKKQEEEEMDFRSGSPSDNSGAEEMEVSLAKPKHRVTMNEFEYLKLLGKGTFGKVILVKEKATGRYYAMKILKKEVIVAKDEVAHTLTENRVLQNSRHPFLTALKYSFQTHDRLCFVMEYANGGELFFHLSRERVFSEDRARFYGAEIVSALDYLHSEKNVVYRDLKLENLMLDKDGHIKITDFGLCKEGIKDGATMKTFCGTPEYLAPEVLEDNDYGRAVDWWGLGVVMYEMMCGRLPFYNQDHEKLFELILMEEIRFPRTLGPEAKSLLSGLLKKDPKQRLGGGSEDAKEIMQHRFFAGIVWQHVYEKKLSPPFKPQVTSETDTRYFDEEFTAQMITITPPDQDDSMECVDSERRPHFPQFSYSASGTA

inhibition [1] [%]	inhibition [2] [%]	inhibition [3] [%]	inhibition [4] [%]	inhibition [5] [%]	inhibition [6] [%]	inhibition [7] [%]	SMILES
-0.71	4.53	2.32	70	57.7	4.96	82.8	COCCNC(=O)c1ccc2c(c1)nc(-c1cnc(-c3ccc(Cl)cc3)[nH]1)n2CCOC
-1.11	56.2	25.3	99.2	63.3	3.36	100	CS(=O)(=O)c1cccc(Nc2nccc(-c3sc(N4CCOCC4)nc3-c3cccc(NS(=O)(=O)c4c(F)cccc4F)c3)n2)c1
2.04	41.9	2.1	91.1	99.8	4.64	86.1	CC(C)(C)c1cc(NC(=O)Nc2ccc(Oc3ccncc3)cc2)no1
